As a reminder, the MIC is the smallest concentration in the dilution series that meets the test's criterion for growth inhibition.

Values after ≈ are worked out from the molar mass of the structure shown.

For one data set, the system named is AbFtsZ. Kind of data set: AbFtsZ polymerization, 90° light scattering. Format: biochemical, Acinetobacter baumannii. Particulars: test compound at 128 μg/mL, AbFtsZ 0.15 mg/mL, 1 mM GTP, 8°C. As to the method:
Effects on inhibition of the cinnamaldehyde derivatives on AbFtsZ polymerization were analyzed using the assay as previously described ([Chai et al., 2020]) with the following modifications. A reaction mix was prepared in a cold Eppendorf® tube where AbFtsZ (0.15 mg/mL) was mixed with the test compound at the desired concentration and a polymerization buffer diluted from a double strength buffer to give a final concentration of 25 mM PIPES pH 6.8, 50 mM KCl and 10 mM MgCl2. The reaction mix was prepared such that the DMSO concentration remained constant at 2% (v/v). The mix was then added into a quartz cuvette (PerkinElmer®, United Kingdom), and placed in a PerkinElmer® LS 55 fluorometer under the fixed condition of excitation/emission at 350/350 nm, slit width < 2 nm, a 1 s read interval. The temperature was calibrated to remain constant at 8°C. The fluorescence was followed for 300 sec to allow equilibration, then polymerization was initiated with the addition of 1 mM GTP. A separate negative control was prepared where 1 mM GDP was added instead of the GTP. The reaction was followed for 600 s.
(A–F) AbFtsZ (0.15 mg/mL) was pre-incubated in polymerization buffer (25 mM PIPES pH 6.8, 50 mM KCl and 10 mM MgCl2) together with the test compound at 128 μg/mL for 300 s. Polymerization was then initiated with the addition of 1 mM GTP. The fluorescence was measured as a function of time at excitation and emission wavelengths of A350 and A350 nm, respectively, and a slit width of <2 nm. The blue line in each panel indicates the addition of 2.5% (v/v) DMSO, the pink line indicates the test compound tested at 128 μg/mL and the gray line represents the addition of 1 mM GDP (as negative control) instead of GTP.

For the next data set, the system named is A. baumannii ATCC 19606. Kind of data set: Cell division phenotype by light microscopy. It counts as cell-based, Acinetobacter baumannii. Conditions: LXC compounds at 2 × MIC. The protocol:
Morphological changes of bacteria when exposed to the compounds were assessed microscopically using the assay as previously described ([Chai et al., 2020]). Eppendorf® tubes were set up with A. baumannii ATCC 19606 as described for the time-kill assays. At time 0, 1, 3, 6, and 18 h, an aliquot of the bacterial suspension (1 μL) was transferred onto a glass slide and viewed under a light microscope (Olympus CX33®) at 100 × magnification. Representative images were captured using JENOPTIK GRYPHAX® imaging.
A 1 μL aliquot was taken out at varying timepoints (0, 1, 3, 6, and 18 h) and imaged by light microscopy. The images for 6 h are depicted here. […] The white arrow indicates “grooving” site, an indication of where separation of daughter cells should take place. Scale bar is 50 μm.
Four of the compounds (LXC 31, 33, 35 and 41) were tested at 1× and 2× their minimum inhibitory concentration (MIC) whereas LXC 36 and 43 were tested at 2× and 4× MIC. The phenotypic changes in A. baumannii morphology were analysed under a light microscope (100× magnification) at time 0, 1, 3, 6 and 18 h. Scale bar is 50 µm.

In another data set the test system is human red blood cells. Kind of data set: Hemolysis assay. Particulars: fresh human RBCs, 1 h, 37°C, concentrations up to 4 × MIC (concentration in the value words). It counts as cell-based. As to the method:
The hemolysis assay was performed using fresh human red blood cells (RBCs). […] These were performed in quadruplicate. Thereafter, 192 μL RBCs were added into all wells and the plates were incubated at 37°C under constant shaking (100 rpm) for 1 h. RBCs were precipitated by centrifugation of the plates (1,000× g for 3 min). An aliquot (100 μL) of each supernatant was transferred into a new 96-microwell plate and the A450 nm was determined using a PerkinElmer Enspire® plate reader. The fraction of intact RBC for each sample was determined as fraction of the intact RBCs for the sample without the addition of compounds (set at 100%) and plotted as a function of compound concentration.
A 1% (v/v) Triton X-100 was used to indicate complete RBC lysis (^‡). […] The assays were performed in quadruplicates. The plates were incubated at 37°C while constantly shaking at 100 rpm for 1 h. Intact RBCs were removed by centrifugation and the presence of hemolytic products in the supernatant were determined by measuring the absorbance at A450 nm. The results are presented in mean ± SEM. Statistical analysis was performed using one-way ANOVA and the asterisks (*) represent statistical significance (*p < 0.05; **p < 0.005; ***p < 0.0005; ****p < 0.0001).

Data set [1] has as its system Pseudomonas aeruginosa ATCC 27853. The arrangement: method as in Li et al., 2015a,b. Conditions: ref Li et al., 2015a,b; cited from earlier work.
The test system of the next data set is E. coli ATCC 25922. The arrangement: method as in Li et al., 2015a,b. Conditions: ref Li et al., 2015a,b; cited from earlier work.

Turning to `Cc1nc2ccccc2n1C(=O)/C=C/c1ccc(Cl)cc1Cl` [Compound 6], the “Inhibition of AbFtsZ polymerization” value with AbFtsZ was “strongest activity observed with compound 5, followed by compounds 1 and 6”. In addition, in the data set with A. baumannii ATCC 19606, the “Time until elongated phenotype is seen” value is recorded as not above 3 h.
For the molecule `COc1ccc(/C=C/C(=O)n2c(C)nc3ccccc32)cc1OC` [Compound 5], in the data set on human red blood cells, the Hemolytic activity entry is “only non-lytic at a low concentration (0.25 × MIC, Figure 9E)”. The “Inhibition of AbFtsZ polymerization” value in the data set with AbFtsZ is reported as “strongest activity”.
Regarding `Cc1nc2ccccc2n1C(=O)/C=C/c1ccc(Cl)cc1` [Compound 3], in the data set with A. baumannii ATCC 19606, the “Time until elongated phenotype is seen” value is given as not above 3 h.
Regarding `Cc1nc2ccccc2n1C(=O)/C=C/c1ccc(Br)cc1` [Compound 4], the Hemolytic activity entry with human red blood cells is “devoid of hemolytic activity even at the highest concentration tested (4 × MIC, Figure 9D)”. In addition, the “Time until elongated phenotype is seen” value in the data set with A. baumannii ATCC 19606 is listed as not above 3 h.
Take `Cc1nc2ccccc2n1C(=O)/C=C/c1ccc(F)cc1` [Compound 2]: the “Time until elongated phenotype is seen” value with A. baumannii ATCC 19606 was not above 3 h.
As to `Cc1nc2ccccc2n1C(=O)/C=C/c1ccccc1` [Compound 1], the minimal inhibitory concentration (MIC) (in data set [1]; with E. coli ATCC 25922) was 128 µg/mL (≈ 488 µM) in each case. Further, the “Inhibition of AbFtsZ polymerization” value in the data set with AbFtsZ is “strongest activity observed with compound 5, followed by compounds 1 and 6”. Moreover, in the data set on A. baumannii ATCC 19606, the “Time until elongated phenotype is seen” value is reported as more than 3 h.
